{
  "source": "patent US20200129523A1",
  "about": "“SHIP INHIBITION TO INDUCE EXPRESSION OF GRANULOCYTE COLONY STIMULATING FACTOR IN A SUBJECT” (THE RESEARCH FOUNDATION FOR THE STATE UNIVERSITY OF NEW YORK, priority 2014, published 2020)",
  "key": {"PDGFRα+CD51+ MSC": {"test_system": "PDGFRα+CD51+ MSC", "assay": "In vivo MSC immunophenotyping by flow cytometry", "parameters": "species or system mice", "details": "K118 10 mg/kg i.p. 5 days, vs H2O", "experimental": "PDGFRα^+CD51^+ MSC were detected using methods and reagents as described by Iyer et al.^8 Femurs, tibias, humeri, ulnas, radii, and pelvis were dissected; the bone fragments were cleaned, cut into tiny pieces, and then crushed using a mortar and pestle. The bone chips were then washed several times in HBSS supplemented with 2% heat-inactivated FBS (HBSS/2% HI-FBS) and HBSS only, and then spun at 350×g for 5 mins. The pellet was re-suspended in 3 mg/mL type I collagenase (Worthington) and 15 μg/mL DNAase (Sigma, St. Louis, Mo.) dissolved in HBSS and incubated at 37° C. for 30 min at 110 rpm, this step was repeated twice. Following incubation, mononuclear cells were obtained using a Ficoll gradient ([…] and Histopaque-1077; Sigma, St. Louis, Mo.), and were then used for further analysis. Cells were stained with antibodies as described in Iyer et al.^8"}, "SHIP1": {"target": "T1, SHIP1 (Homo sapiens, UniProt Q92835)", "T1 sequence (Q92835 1-1189)": "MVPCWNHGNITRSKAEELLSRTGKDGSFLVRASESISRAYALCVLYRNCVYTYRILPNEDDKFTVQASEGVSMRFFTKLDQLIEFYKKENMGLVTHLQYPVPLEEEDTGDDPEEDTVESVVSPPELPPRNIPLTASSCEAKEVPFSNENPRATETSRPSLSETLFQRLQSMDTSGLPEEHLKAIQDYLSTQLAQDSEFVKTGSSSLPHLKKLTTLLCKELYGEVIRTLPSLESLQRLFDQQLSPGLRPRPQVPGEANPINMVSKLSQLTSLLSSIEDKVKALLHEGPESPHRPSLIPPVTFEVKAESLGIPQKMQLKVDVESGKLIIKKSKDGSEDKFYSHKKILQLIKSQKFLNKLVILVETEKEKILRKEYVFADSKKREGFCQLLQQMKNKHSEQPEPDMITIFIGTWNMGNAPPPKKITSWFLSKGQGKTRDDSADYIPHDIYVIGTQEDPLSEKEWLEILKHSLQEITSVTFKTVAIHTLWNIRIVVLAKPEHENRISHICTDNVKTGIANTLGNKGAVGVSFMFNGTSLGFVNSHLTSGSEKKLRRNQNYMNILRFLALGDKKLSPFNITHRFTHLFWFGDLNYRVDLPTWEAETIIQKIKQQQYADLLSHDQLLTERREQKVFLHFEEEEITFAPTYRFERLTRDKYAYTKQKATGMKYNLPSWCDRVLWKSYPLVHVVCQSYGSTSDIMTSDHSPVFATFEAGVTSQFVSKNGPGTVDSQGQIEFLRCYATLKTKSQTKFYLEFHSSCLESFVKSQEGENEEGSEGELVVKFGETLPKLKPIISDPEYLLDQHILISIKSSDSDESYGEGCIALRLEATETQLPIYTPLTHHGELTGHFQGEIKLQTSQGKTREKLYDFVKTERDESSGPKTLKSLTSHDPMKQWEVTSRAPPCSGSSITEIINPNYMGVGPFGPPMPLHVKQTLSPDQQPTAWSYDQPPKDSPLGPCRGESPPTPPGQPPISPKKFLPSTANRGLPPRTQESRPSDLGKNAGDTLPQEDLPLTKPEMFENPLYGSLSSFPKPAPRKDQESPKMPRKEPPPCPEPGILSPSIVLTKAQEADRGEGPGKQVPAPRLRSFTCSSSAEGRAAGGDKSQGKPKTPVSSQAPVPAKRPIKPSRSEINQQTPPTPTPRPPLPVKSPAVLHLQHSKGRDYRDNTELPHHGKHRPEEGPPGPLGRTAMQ", "assay": "Fluorescence Polarization (FP) assay for SHIP1 enzymatic activity", "type": "biochemical", "details": "in vitro, hydrochloride", "source_text": "FIGS. 6A-6F: Characterizations of the soluble SHIPi compound K118. FIG. 6A: Fluorescence Polarization (FP) assay comparing SHIPi enzymatic inhibitory activity between 3AC and K118 (IC50˜13.87). In the remaining panels we show for K118 and H2O treated mice (as indicated). FIG. 6B: Representative box and whisker graph depicting serum levels of G-CSF (n=4/group); FIG. 6C: Flow cytometric analysis comparing LT-HSC (LSKFlk2−CD34−), ST-HSC (LSKFlk2−CD34+), and MPP (LSKFlk2^+CD34^+); FIG. 6D: Absolute increase in BM LT-HSC, ST-HSC, and MPP (n=5/group). Primary CRU assay illustrating global and lineage reconstitution one month post transplant; Absolute increase in repopulating units (RU). FIG. 6E: Representative contour plots for PDGFRα^+CD51^+ MSC (after excluding CD45^+, CD31^+, Lin^+ cells); FIG. 6F: Box and whiskers graph illustrating the percentage of PDGFRa^+CD51^+ MSC (n=5/group); Representative images of CFU-F assays used to measure CFU-F frequencies in BM cells of treated mice and Box and whiskers graphs indicating CFU-F frequency in treated mice. All of the above comparisons are representative of two independent experiments.\n(FIG. 6A) We sought to determine if this water-soluble K118 SHIPi compound has the capacity to increase G-CSF production within the same five-day injection period as 3AC. […]"}},
  "note": "Entries after “also recorded” stand apart in the source; their conditions may differ.",
  "data": [
    {"smiles": "C[C@@]12CCC[C@H]1[C@@H]1CC[C@H]3C[C@@H](N)CC[C@]3(C)[C@H]1CC2.Cl", "note": "[K118, 3β-amino-5α-androstane hydrochloride]", "values": [
      {"measurement": "MSC numbers in BM", "setting": "PDGFRα+CD51+ MSC", "value": "significant expansion"},
      {"measurement": "SHIP1 inhibitory activity compared with 3AC", "setting": "SHIP1", "value": "comparable SHIP1 inhibitory activity; also recorded: equal potency"}
    ]}
  ]
}
